Data: PubChem BioAssay (NCI)
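In this assay, cells in 96-well plates receive the compound at five concentrations for 48 hours. Endpoints are linearly interpolated between the surrounding concentrations. GI50 = concentration required for 50% inhibition of growth. The concentration for full growth arrest is given as TGI.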

Columns and labels:
Test in all cases: DTP human tumour cell line panel, 48 h
[1] = test system: MDA-N
[2] = test system: HS 578T breast
[3] = test system: OVCAR-4 ovarian
[4] = test system: HOP-92 NSCLC
[5] = test system: COLO 205 colon
[6] = test system: A498 renal
[7] = test system: K-562 leukemia
[8] = test system: M14 melanoma

SMILES	TGI [1] [µM]	TGI [2] [µM]	TGI [3] [µM]	TGI [4] [µM]	TGI [5] [µM]	TGI [6] [µM]	TGI [7] [µM]	TGI [8] [µM]	GI50 [2] [µM]	GI50 [3] [µM]	GI50 [4] [µM]	GI50 [5] [µM]	GI50 [6] [µM]	GI50 [7] [µM]
COC(=O)c1sc(=S)sc1SCc1ccccc1CSc1sc(=S)sc1C(=O)OC	> 100	> 100	> 100	> 100	> 100	> 100	> 100	> 100	–	–	–	–	–	–
C/C(=C/CO[Si](C)(C)C(C)(C)C)C(=O)N(C)c1ccccc1I	31.9	43.5	31.2	22.5	33.8	31	> 100	28.6	–	–	–	–	–	–
COC(=O)C1=C(O)C(C(=O)OC)[C@@]2(O)[C@@H](C(=O)OC)C(c3ccc(OC(=O)/C(=C/c4ccc(Cl)cc4)c4ccc(Cl)cc4)cc3)C[C@@H]1[C@@H]2C(=O)OC (stereo not given in full)	51.9	> 100	> 100	> 100	92.6	> 100	> 100	41.8	–	–	–	–	–	–
Cn1c(=O)c2c(-c3ccccc3)onc2n(C)c1=O	> 100	75.6	> 100	> 100	> 100	> 100	> 100	> 100	–	–	–	–	–	–
CC[C@]12C=CCN3CCC4(c5cc(N=Nc6ccccc6)c(OC)cc5N(C)[C@H]4[C@@](O)(C(=O)OC)[C@@H]1OC(C)=O)[C@@H]32 (stereo not given in full)	35.8	39	38.8	30.2	77.1	32.2	64.2	43.6	–	–	–	–	–	–
Cc1cccc(C(C)(C)C)c1NC(=O)/C(Cc1nc2ccc([N+](=O)[O-])cc2[nH]c1=O)=N/NC(=O)C[N+](C)(C)C	> 100	> 100	> 100	> 100	> 100	> 100	> 100	> 100	–	–	–	–	–	–
N#Cc1c(NC(=O)c2ccccc2)sc2c1CCC(=O)C2	–	7.32	2.49	2.72	4.46	41.2	> 100	–	1.92	0.806	0.821	1.93	8.83	0.467
N#CC1=C(N)C(C#N)(C#N)C(c2ccc(F)cc2)C=C1C1CC1 (stereo not given)	6.67	> 100	–	27	24.9	23.5	41.9	15.8	–	–	–	–	–	–
CCOC(=O)c1nc2c3c(ncn2n1)Oc1c(c(-c2ccccc2)nn1-c1ccccc1)C3c1ccc(Cl)cc1 (stereo not given)	> 100	> 100	> 100	> 100	> 100	> 100	> 100	> 100	–	–	–	–	–	–
CCOC(=O)c1ccc2nc(NC(=O)COC(=O)CSc3nc(C)cc(C)n3)sc2c1	–	> 100	> 100	> 100	> 100	> 100	> 100	> 100	–	–	–	–	–	–
COc1cc2cc(C(=O)N3CC(CCl)c4c3cc(N)c3ccccc43)[nH]c2cc1OCCN(C)C (stereo not given)	–	0.125	–	0.01	0.00971	< 0.005	1.12	0.00977	–	–	–	–	–	–
O=C(Nn1c(-c2ccccc2)nc2ccccc2c1=O)c1ccccn1	–	> 100	> 100	> 100	> 100	> 100	> 100	> 100	–	–	–	–	–	–
COP(=O)(OC)C(N)CCSC (stereo not given)	> 100	> 100	> 100	> 100	> 100	–	> 100	> 100	–	–	–	–	–	–
CCCn1c(C23CC4CC(CC(C4)C2)C3)nc2ccc(Cl)cc2c1=O	> 100	> 100	> 100	> 100	> 100	66.1	> 100	> 100	–	–	–	–	–	–
S=C(N/N=C\C=N/NC(=S)N1CCCCCC1)N1CCCCCC1	> 100	> 100	–	> 100	> 100	> 100	> 100	> 100	–	–	–	–	–	–
Nc1ccc2c(c1)C(=O)c1ccccc1-2	–	> 100	> 100	91	> 100	> 100	> 100	> 100	–	–	–	–	–	–
COc1ccc(/C=C/c2cc(O)cc(OC)c2)cc1	–	> 100	> 100	> 100	> 100	> 100	> 100	> 100	–	–	–	–	–	–
COC(=O)[C@H](C)N1C(=O)N[C@@H](C(C)C)C1=O	> 100	–	> 100	> 100	> 100	–	> 100	> 100	–	–	–	–	–	–
O=C1/C(=C/c2ccccc2)CCc2ccc(Cl)nc21	18.5	–	> 83.5	38.8	40.5	34.6	6.78	23.6	–	–	–	–	–	–
O=C(O)/C=C(/CC(=O)O)C(=O)O	54.6	40.7	65.3	–	38.6	32.7	42.6	44.2	–	–	–	–	–	–
CC1(C)COC(c2cccc(C3=NC(C)(C)CO3)c2Br)=N1	–	–	> 100	> 100	> 100	–	> 100	> 100	–	–	–	–	–	–
CS(=O)(=O)OCCN1CCC2(CC1)SSC1(CCN(CCOS(C)(=O)=O)CC1)S2	> 100	> 100	> 100	–	> 100	56.1	> 100	> 100	–	–	–	–	–	–
Cc1cc2ccccc2n1CC(=O)NCC(C)C	> 100	> 100	> 100	> 100	> 100	–	> 100	> 100	–	–	–	–	–	–
COc1ccc(C(O)c2ccc3c(c2)OCO3)cc1 (stereo not given)	> 100	–	> 100	> 100	> 100	> 100	> 100	> 100	–	–	–	–	–	–
O=C(c1ccccc1)c1c(C(F)(F)F)n([O-])c2ccccc2[n+]1=O	–	> 100	1.11	1.2	–	4.72	–	–	–	–	–	–	–	–
NC(N)=N/N=C/c1c(-c2ccc([N+](=O)[O-])cc2)nc2sccn12	–	4.14	2.97	3.52	1.96	3.21	2.84	3.38	–	–	–	–	–	–
CC1(C)O[C@@H](CO)[C@H]([C@@]23OC[C@H]4OC(C)(C)OC4[C@@H]2OC(C)(C)O3)O1 (stereo not given in full)	> 100	> 100	> 100	> 100	> 100	–	> 100	> 100	–	–	–	–	–	–
